Laboratory results published in PubChem BioAssay (NCI).
Where “and” joins values, the source holds several entries; their conditions need not be identical. Equal entries are not always repeated.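 Values below derive from 48-hour exposures of cells grown in 96-well plates, with endpoints linearly interpolated between the two concentrations bracketing the appropriate inhibition level. GI50: concentration for 50% inhibition of growth. The concentration for full growth arrest is given as TGI.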

What was measured:
Assay in all cases: NCI tumour cell line growth inhibition, 48 h
[1] = tested on: SK-MEL-2 melanoma
[2] = tested on: UACC-62 melanoma
[3] = tested on: OVCAR-5 ovarian
[4] = tested on: MDA-MB-231 breast
[5] = tested on: SNB-75 CNS
[6] = tested on: EKVX NSCLC
[7] = tested on: HS 578T breast
[8] = tested on: SW-620 colon
[9] = tested on: MDA-MB-435
[10] = tested on: MOLT-4 leukemia

Row | SMILES | GI50 [1] [µM] | TGI [1] [µM] | GI50 [2] | TGI [2] [µM] | GI50 [3] [µM] | TGI [3] [µM] | GI50 [4] [µM] | TGI [4] [µM] | GI50 [5] [µM] | TGI [5] [µM] | GI50 [6] [µM] | TGI [6] [µM] | GI50 [7] [µM] | TGI [7] [µM] | GI50 [8] | TGI [8] [µM] | GI50 [9] [µM] | TGI [9] [µM] | TGI [10] [µM] | GI50 [10] [µM]
1 | COc1nc(=O)n(C2C=CC(=O)O2)cc1F (stereo not given) | 16.5 | 54.1 | 5.53 µM | 18.7 | 15.2 | 28.6 | 12.7 | 25.9 | 14.3 | 43.1 | 11.3 | > 100 | 13.4 | 40.8 | 4.19 µM | 15.8 | 5.23 | 27.6 | – | –
2 | CN(Cc1cnc2nc(N)nc(N)c2n1)c1ccc(C(=O)N[C@@H](CCS(=O)(=O)O)C(=O)O)cc1 | – | > 100 | – | > 100 | – | – | – | > 100 | 18.2 | > 100 | – | > 100 | – | > 100 | – | > 100 | – | > 100 | > 100 | –
3 | Cc1nc2sccn2c1-c1nc2sccn2c1/C=C1/C(=O)Nc2ccccc21 | 2.68 | 36.8 | 5.15 µM | > 100 | 12.9 | > 100 | 4.85 | 23.9 | 2.38 | 16 | 7.45 | 55.3 | 1.96 | 9.75 | 2.32 µM | 7.61 | 0.53 | 2.52 | – | –
4 | CSC[C@H](NC(=O)COc1cccc2cnccc12)C(=O)NC(Cc1ccccc1)C(O)C(=O)N1CSC[C@H]1C(=O)NC(C)(C)C (stereo not given in full) | – | > 100 | – | > 100 | – | > 100 | – | > 100 | – | > 100 | – | – | – | > 100 | – | > 100 | – | > 100 | > 100 | –
5 | CC(C)=CCC1=C(O)c2ccccc2C(=O)C1=O | 68.7 | > 88.3 | > 100 µM and 13.4 µM | > 100 | 56.2 | > 100 | 21 | > 100 | – | > 100 | 57.7 | > 100 | – | > 100 | > 100 µM and 34.6 µM and 22.9 µM | > 100 | 21.8 | > 100 | – | –
6 | Nc1c(C(=O)Nc2ccccn2)sc2nc3c(cc12)C(=O)CCC3 | 0.443 | > 100 | 0.621 µM | > 100 | 9.53 | > 100 | 4.54 | > 100 | 0.646 | 22.2 | – | – | 0.804 | 93.7 | 0.706 µM | > 100 | – | – | > 100 | > 100
7 | FC(F)(F)c1ccc2nc(NCc3ccccc3)c(-c3ccccc3)nc2c1 | – | > 100 | – | > 100 | – | > 100 | – | – | – | > 100 | – | > 100 | – | – | – | > 100 | – | – | 72.5 | –
8 | COc1cccc2c1O/C(=C\c1ccc([N+](=O)[O-])s1)C2=O | 1.76 | 3.92 | 1.36 µM | 3.23 | > 100 | > 100 | 1.25 | 2.92 | 2.33 | > 32.5 | – | – | 2.99 | > 32.1 | 0.46 µM | 1.75 | – | – | – | –
9 | Cc1cc(C)nc(NS(=O)(=O)c2ccc(Nc3c4ccccc4nc4c(C(=O)N5CCN(CCO)CC5)cccc34)cc2)n1 | – | > 100 | – | > 100 | – | > 100 | – | – | – | > 100 | – | > 100 | – | – | – | > 100 | – | – | > 100 | –
10 | Cc1cc2c(cc1C)[n+](=O)cc(C(=O)C/C(=N/NC(=S)NN)C(=O)Nc1cccc(C(F)(F)F)c1)n2[O-] | – | > 100 | – | > 100 | – | > 100 | – | – | – | > 100 | – | > 100 | – | – | – | > 100 | – | – | > 100 | –
11 | COc1cc(OC)c(OC)cc1/C=N/NC(=O)N/N=C/c1cc(OC)c(OC)cc1OC | – | > 100 | – | > 100 | – | > 100 | – | – | – | 52.3 | – | > 100 | – | – | – | > 100 | – | – | > 100 | –
12 | CCN(CCNS(C)(=O)=O)c1ccc(N)c(C)c1 | 14.3 | 29.3 | – | – | 13.6 | 28.2 | 11.8 | 25.4 | 18.8 | 37.8 | – | – | 32.9 | > 100 | 2.25 µM | 5.31 | 2.75 | 6.91 | 59.6 | 23.1
13 | Cc1nc2c(N)ncnc2o1 | – | > 100 | – | > 100 | – | > 100 | – | – | – | > 100 | – | > 100 | – | – | – | > 100 | – | – | > 100 | –
14 | CC(=O)N/C(=C\c1ccccc1/C=C(\NC(C)=O)c1nc2cc(C)c(C)cc2[nH]1)c1nc2cc(C)c(C)cc2[nH]1 | – | 53.9 | – | 31.9 | – | 94.6 | – | – | – | > 100 | – | 32.5 | – | – | – | 64.7 | – | – | 97.4 | –
15 | O=C1c2cccc3cccc(c23)C(=O)N1CCN(CCO)CCO | – | 30.2 | – | 37.5 | – | 49.1 | – | – | – | > 100 | – | 90.9 | – | – | – | 46 | – | – | 80.8 | –
16 | CCOC(=O)Cc1csc(Nc2ccccc2[N+](=O)[O-])n1 | – | > 100 | – | > 100 | – | > 100 | – | – | – | > 100 | – | > 100 | – | – | – | > 93.1 | – | – | > 100 | –
17 | O=C(O)c1ccc(CNCc2ccccc2)cc1 | – | > 100 | – | > 100 | – | > 100 | – | > 100 | – | – | – | > 100 | – | > 100 | – | > 100 | – | > 100 | > 100 | –
18 | CCCCCCCCCCCC[N+]12CC[N+](CCN)(CC1)CC2 | – | > 100 | – | > 100 | – | 38.1 | – | – | – | > 100 | – | > 100 | – | – | – | > 100 | – | – | > 100 | –
19 | CCN(Cc1c(F)cccc1OC)c1ccc(CO)c(Cl)c1 | 2.39 | 21.7 | 0.0961 µM | 0.953 | 0.0371 | 0.242 | 14.5 | 40.9 | 14.5 | 46.2 | – | – | 19.1 | 53.4 | 0.714 µM | > 77 | 16 | 39 | 52.3 | 17.4
20 | CNCCCNc1ccnc2cc(Cl)ccc12 | 19.6 | 37.9 | 20.1 µM | 45.7 | 21.1 | 72 | 12.7 | 56.5 | 16.4 | 82 | – | – | 20.8 | 78 | 13.2 µM | 58.8 | 14.4 | 28.4 | 69.9 | 20.6
